Data reported in publication PMC11357992, “Non-invasive mapping of systemic neutrophil dynamics upon cardiovascular injury” (Nature Cardiovascular Research, 2023).
Several values for one entry are separate records, joined by “and”; a condition that tells them apart may be missing. Equal values may be shown once. Where no end group is shown, it is not given here. Side-chain parts run from the residue outwards. rhodamine‑labelled PEGylated perfluoro‑15‑crown‑5 ether nanoemulsion = not defined here; carboxyfluorescein = N-terminal fluorescence label (CF)

Assays:
murine neutrophils = assay: ROS production of murine neutrophils after mNPPFC injection (dihydroethidium, UPLC); type: in vivo, mouse; details: in the presence of the targeting PFCs
Description: […] per kg BW ^mNPPFCs or saline were injected i.v., and, 2 h later, neutrophils were isolated from the bone marrow, and extracellular ROS was measured in the cell supernatant by oxidation of dihydroethidium followed by UPLC analysis.
(§1) A total of 5 × 10^6 human neutrophils were incubated in 10 ml DMEM with or without 1 µg ml^−1 peptide or 50 µl ml^−1 emulsion. At distinct time points, cells were pelleted, and 1 ml of the supernatant was immediately frozen at −80 °C. Subsequently, the amount of ROS was determined by chemiluminescence analysis. […] After centrifugation, 80 µl supernatant was used to determine ROS by UPLC measurement (Waters Acquity Bio H-Class with 2475 FLD Detector). To this end, gradients A and B (0.1% trifluoroacetic acid in 1 l water and acetonitrile, respectively) at a flow rate of 0.26 ml min^−1 at 17 °C were used. Dihydroethidium was excited and detected at 480 nm and 580 nm, respectively.
Extended Data Fig. 9 Impact of ^mNPPFCs on murine neutrophils. a, Differentially expressed genes (DEGs) identified by bulk RNA sequencing of murine blood neutrophils after intravenous injection of ^mNPPFCs, ^ConPFCs or NaCl (Ctrl) as control. […] In total 25655 RNA transcripts were analyzed. b, Cell surface expression of CD11b, CD62L, CD63 on blood derived murine neutrophils after intravenous application of NaCl (Ctrl) or ^mNPPFCs. […]

bone marrow neutrophils = assay: In vivo mNPPFC labeling of bone marrow neutrophils after Matrigel-LPS, 1H/19F MRI; design: species or system mouse; details: individual experiments; for total amount of 19F in the bone marrow (1H/19F MRI): mNPPFCs 1 mmol per kg BW i.v. 24 h after implantation, MRI another 24 h later; for 19F signal normalized to the number of neutrophils in the bone marrow: neutrophil number by flow cytometry directly after MRI
Description: To induce defined inflammatory foci, we adopted a recently developed model of localized subcutaneous inflammation. To this end, ice-cold Matrigel (Corning) was doped with LPS (1 µg µl^−1; Salmonella typhimurium, Sigma-Aldrich) and subcutaneously (s.c.) implanted into the neck of the mice. Twenty-four hours after implanting the plug, neutrophils were isolated from the blood and incubated ex vivo with ^mNPPFCs or ^ConPFCs. In separate experiments, 24 h after implantation, ^mNPPFCs or ^ConPFCs were injected intravenously, and immune cells were isolated from the blood. In further experiments, 1 d after plug injection, mice received 1 mmol per kg BW ^mNPPFCs, and, 24 h later, the bone marrow was analyzed by ^1H/^19F MRI. Thereafter, mice were killed, and neutrophils were isolated from the bone marrow for determination of cell numbers. In each case, immune cells were analyzed by flow cytometry.
Slice packages were placed in sagittal orientation to cover the complete bone marrow in the tibia and femur in both legs using the following scan details: ^1H RARE, TR = 2,000 ms, FOV = 4.00 × 2.56 cm^2, matrix = 256 × 256, ST = 1 mm, tAcq = 1 min; ^19F RARE, TR = 2,500 ms, FOV = 4.00 × 2.56 cm^2, matrix = 64 × 64, ST = 3 mm, tAcq = 10 min.

human neutrophils = assay: ROS release of human neutrophils; type: cell-based; details: for ROS release of human neutrophils, raw data (panel C): single samples #1-#3
Description: as §1

Substance | ROS production of murine neutrophils (murine neutrophils) | total amount of 19F in the bone marrow (1H/19F MRI) (bone marrow neutrophils; Ctrl: Matrigel-PBS plug) | 19F signal normalized to the number of neutrophils in the bone marrow (bone marrow neutrophils; Ctrl: Matrigel-PBS plug) | total amount of 19F in the bone marrow (1H/19F MRI) (bone marrow neutrophils; LPS: Matrigel-LPS plug) | 19F signal normalized to the number of neutrophils in the bone marrow (bone marrow neutrophils; LPS: Matrigel-LPS plug) | impact on human neutrophil ROS release (human neutrophils; 1 µg ml^−1 peptide or 50 µl ml^−1 emulsion) | ROS release of human neutrophils, raw data (panel C) (human neutrophils; time point 1) | ROS release of human neutrophils, raw data (panel C) (human neutrophils; time point 3) | ROS release of human neutrophils, raw data (panel C) (human neutrophils; time point 6) | ROS release of human neutrophils, raw data (panel C) (human neutrophils; time point 24)
mNPPFCs: PEGylated rhodamine-labeled perfluoro-15-crown-5 ether nanoemulsion (maleimide PFCs) coupled with murine neutrophil-specific peptide mNP (carboxyfluorescein-DFYKPMPNLRITGGGC([maleimide‑PEG2000‑DSPE-rhodamine‑labelled PEGylated perfluoro‑15‑crown‑5 ether nanoemulsion]); reading uncertain; also: printed as DFYKPMPNLRIT-GGG-C) | unaltered | 505497 and 895713 and 688103 and 1.24E+06 and 1.03E+06 | 5335.62 and 16297.54 and 4781.15 and 12000.14 and 6924.34 | 1632050.00 and 894870.00 and 1335810.00 and 1304290.00 and 940933.00 | 47748.80 and 38144.50 and 144567.64 and 78101.02 and 94661.27 | – | – | – | – | –
hNPPFCs: PEGylated rhodamine-labeled perfluorocarbon nanoemulsion coupled with human neutrophil-specific peptide hNP (carboxyfluorescein-DLVTSKLQVGGGC; also: C-terminal Cys coupled via maleimide-PEG2000-DSPE to rhodamine-labelled perfluorocarbon nanoemulsion) | – | – | – | – | – | neither ^hNPPFCs nor the free peptide had any impact on human neutrophil ROS release | 1725.82 and 1480.41 and 1396.67 | 1373.8 and 1515.29 and 1254.87 | 2382.05 and 1474.31 and 1302.37 | 1643.61 and 1455.28
